Results reported in ChEMBL document CHEMBL1127569, “Comparison of the conformation of active and nonactive backbone cyclic analogs of substance P as a tool to elucidate features of the bioactive conformation: NMR and molecular dynamics in DMSO and water” (J Med Chem, 1994).
Starred links: 1 amine or outer side, 2 acyl side, 3 side chain; linkers in the order of their positions; H or OH if unused. Positions of bridges follow the written chain, without caps; N, C: chain ends. Non-standard residues stand in square brackets, D forms with d. Residues, ends and D or L forms follow the SMILES beside them. NGly(3-aminopropyl) = O=C(CN(CCCN[*:3])[*:1])[*:2]; N(2-Aminoethyl)Gly = O=C(CN(CCN[*:3])[*:1])[*:2]; Adipoyl = O=C(CCCCC(=O)[*:2])[*:1]; Glutaryl = O=C(CCCC(=O)[*:2])[*:1]; Suc = O=C(CCC(=O)[*:2])[*:1]

What was measured:
Substance-K receptor = target: T1, Substance-K receptor (Homo sapiens, UniProt P21452); test: Tested for the biological activity and selectivity against NK-2 receptor
T1 sequence (P21452 whole entry): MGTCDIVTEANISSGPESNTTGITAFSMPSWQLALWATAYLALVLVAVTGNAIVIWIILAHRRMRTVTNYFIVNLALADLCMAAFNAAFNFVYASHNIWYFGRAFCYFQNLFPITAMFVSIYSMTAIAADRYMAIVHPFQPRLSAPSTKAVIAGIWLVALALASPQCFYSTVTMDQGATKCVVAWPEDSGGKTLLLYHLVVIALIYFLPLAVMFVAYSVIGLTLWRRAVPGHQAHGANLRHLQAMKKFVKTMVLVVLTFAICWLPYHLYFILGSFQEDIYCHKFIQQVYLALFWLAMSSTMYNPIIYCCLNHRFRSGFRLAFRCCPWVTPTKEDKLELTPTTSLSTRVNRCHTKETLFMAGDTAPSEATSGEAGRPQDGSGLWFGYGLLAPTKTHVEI

Substance-P receptor = Substance-P receptor (Homo sapiens, UniProt P25103); test: Tested for the biological activity and selectivity against NK-1 receptor
Chain of Substance-P receptor (P25103 whole entry): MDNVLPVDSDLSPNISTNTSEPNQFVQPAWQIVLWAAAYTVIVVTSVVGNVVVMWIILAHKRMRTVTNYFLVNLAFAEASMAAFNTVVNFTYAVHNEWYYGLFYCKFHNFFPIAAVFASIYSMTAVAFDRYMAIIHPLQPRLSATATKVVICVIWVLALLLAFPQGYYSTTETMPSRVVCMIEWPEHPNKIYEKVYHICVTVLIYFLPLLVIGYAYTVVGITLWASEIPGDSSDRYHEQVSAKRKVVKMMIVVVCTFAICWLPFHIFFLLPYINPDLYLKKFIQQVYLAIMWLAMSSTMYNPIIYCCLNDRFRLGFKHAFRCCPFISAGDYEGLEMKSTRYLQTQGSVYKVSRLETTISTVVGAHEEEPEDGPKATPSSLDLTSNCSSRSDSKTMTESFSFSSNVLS

Neuromedin-K receptor = target: T2, Neuromedin-K receptor (Homo sapiens, UniProt P29371); test: Tested for the biological activity and selectivity against NK-3 receptor
T2 sequence (P29371 whole entry): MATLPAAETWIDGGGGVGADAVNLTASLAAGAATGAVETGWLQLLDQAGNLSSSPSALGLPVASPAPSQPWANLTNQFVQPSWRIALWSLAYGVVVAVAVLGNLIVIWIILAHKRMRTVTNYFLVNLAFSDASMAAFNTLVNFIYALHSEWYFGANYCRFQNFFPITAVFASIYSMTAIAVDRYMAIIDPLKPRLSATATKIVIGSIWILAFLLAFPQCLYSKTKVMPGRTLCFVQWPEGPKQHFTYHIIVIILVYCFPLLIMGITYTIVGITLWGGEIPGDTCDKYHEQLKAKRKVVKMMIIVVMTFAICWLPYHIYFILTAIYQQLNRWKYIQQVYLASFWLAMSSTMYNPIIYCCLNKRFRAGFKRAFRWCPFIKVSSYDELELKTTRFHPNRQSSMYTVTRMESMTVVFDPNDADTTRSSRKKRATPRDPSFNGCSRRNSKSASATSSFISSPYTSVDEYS

## CSCC[C@H](NC(=O)[C@H](CC(C)C)NC(=O)CN1CCNC(=O)CCC(=O)NCC(=O)N[C@@H](CCCN=C(N)N)C(=O)N[C@@H](Cc2ccccc2)C(=O)N[C@@H](Cc2ccccc2)C1=O)C(N)=O (GRFF[N(2-Aminoethyl)Gly]LM-NH2; linker N-5 via Suc)
Substance-K receptor
  EC50: > 50 µM
Substance-P receptor
  EC50: > 10 µM
Neuromedin-K receptor
  EC50: > 10 µM

## CSCC[C@H](NC(=O)[C@H](CC(C)C)NC(=O)CN1CCCNC(=O)CCCCC(=O)N[C@@H](CCCN=C(N)N)C(=O)N[C@@H](Cc2ccccc2)C(=O)N[C@@H](Cc2ccccc2)C1=O)C(N)=O (RFF[NGly(3-aminopropyl)]LM-NH2; linker N-4 via Adipoyl)
Substance-K receptor
  EC50: > 50 µM
Substance-P receptor
  EC50: 0.005 µM
Neuromedin-K receptor
  EC50: > 10 µM

## CSCC[C@H](NC(=O)[C@H](CC(C)C)NC(=O)CN1CCCNC(=O)CCCC(=O)N[C@@H](CCCN=C(N)N)C(=O)N[C@@H](Cc2ccccc2)C(=O)N[C@@H](Cc2ccccc2)C1=O)C(N)=O (RFF[NGly(3-aminopropyl)]LM-NH2; linker N-4 via Glutaryl)
Substance-K receptor
  EC50: > 50 µM
Substance-P receptor
  EC50: 0.011 µM
Neuromedin-K receptor
  EC50: > 10 µM

## CSCC[C@H](NC(=O)[C@H](CC(C)C)NC(=O)CN1CCCNC(=O)CCC(=O)N[C@@H](CCCN=C(N)N)C(=O)N[C@@H](Cc2ccccc2)C(=O)N[C@@H](Cc2ccccc2)C1=O)C(N)=O (RFF[NGly(3-aminopropyl)]LM-NH2; linker N-4 via Suc)
Substance-K receptor
  EC50: > 50 µM
Substance-P receptor
  EC50: 0.18 µM
Neuromedin-K receptor
  EC50: > 10 µM
